Measured values reported in patent US20130065756A1, “SPIROHETEROCYCLIC DIONE DERIVATIVES USED AS PESTICIDES” (SYNGENTA CROP PROTECTION LLC, priority 2009, published 2013).
Where two headings read alike, the source gives them in different places.

Key:
[1] = system: Myzus persicae (green peach aphid); experiment: Example B9: Myzus persicae on pepper or cabbage plants, feeding/residual contact activity; format: in vivo; settings: 144 h, 6 days, read-out: activity against Myzus persicae (mortality)
pepper plants = settings: in vivo, 6 days, 200 ppm
Method: (§1) (Mixed Population, Feeding/Residual Contact Activity, Plant Damage Evaluation)
(§2) Pepper [P] or cabbage […] plants infested with a mixed population of Myzus persicae are treated with diluted test solutions of the compounds in a spray chamber. 6 days after treatment, samples are checked for mortality and for plant damage (phytotoxicity), visual assessment being made using a 0-100% rating scale (100%=total damage to plant; 0%=no damage to plant).

[2] = system: Nilaparvata lugens (brown rice planthopper); experiment: Example B6: Nilaparvata lugens, larvicide, feeding/contact; settings: in Oryza sativa, read-out: activity (mortality, growth regulation, effects on F1 generation)
[3] = system: Thrips tabaci (onion thrips); experiment: Example B3: Thrips tabaci, mixed population, feeding/residual contact activity, preventive; settings: foliar, 144 h, read-out: activity (mortality)
[4] = system: Tetranychus urticae (two-spotted spider mite); experiment: Example B4: Tetranychus urticae, mixed population, feeding/residual contact activity, preventive; settings: foliar, 192 h, read-out: activity (egg, larval and adult mortality)
[5] = system: Myzus persicae (green peach aphid); experiment: Example B8: drench activity against Myzus persicae; settings: soil, 168 h, read-out: activity (mortality), drench
[6] = system: Aphis Craccivora (cowpea aphid); experiment: Example B7: translaminar activity against Aphis craccivora; format: in vivo; settings: 120 h, upper side of French bean leaves painted, 5 days
Method: Translaminar Activity Against Aphis Craccivora (Cowpea Aphid)
French bean leaves (Phaseolus vulgaris) are infested with about 20 mixed age individuals on the lower leaf side using clip cages. 1 day after the infestation, the upper side of the leaves is treated with the test solution by painting. 5 days later, samples are checked for mortality.

[7] = system: Myzus persicae (green peach aphid); experiment: Example B2: Myzus persicae, mixed population, systemic/feeding activity, curative; settings: 144 h, read-out: activity (mortality)
cabbage plants = settings: in vivo, 6 days, 200 ppm
Method: as §1, §2

[8] = system: Myzus persicae (green peach aphid); experiment: Example B1: Myzus persicae, mixed population, feeding/residual contact activity, preventive; format: in vivo; settings: foliar, 144 h, sprayed sunflower leaf discs, 6 days

Row | Compound | mortality at 200 ppm ([1]; pepper [P] plants sprayed) | damage to pepper plants (phytotoxicity) (pepper plants) | mortality at 400 ppm [2] | mortality at 400 ppm [3] | mortality at 400 ppm [4] | mortality at 25 ppm [5] | mortality at 400 ppm [6] | mortality at 200 ppm ([1]; cabbage [C] plants sprayed) | mortality at 400 ppm [7] | damage to cabbage plants (phytotoxicity) (cabbage plants) | mortality at 400 ppm [8]
1 | CON1CCC2(CC1)C(O)=C(c1cc(C)ccc1C)C(=O)N2N(C)C [A5] | ≥ 80% | ≤ 10% | – | – | – | – | – | – | – | – | –
2 | CON1CCC2(CC1)C(=O)C(c1c(C)cc(C)cc1C)C(=O)N2N(C)C (centres unmarked) [A1, 1-Dimethylamino-8-methoxy-3-(2,4,6-trimethyl-phenyl)-1,8-diaza-spiro[4.5]decane-2,4-dione] | ≥ 80% | ≤ 10% | > 80% | > 80% | > 80% | > 80% | > 80% | – | – | – | –
3 | CCOC(=O)OC1=C(c2cc(C)ccc2C)C(=O)N(N2CCOCC2)C12CCN(OC)CC2 [B6] | – | – | – | – | – | – | – | ≥ 80% | > 80% | ≤ 10% | –
4 | CON1CCC2(CC1)C(O)=C(c1c(C)cc(Cl)cc1C)C(=O)N2N(C)C [A3] | – | – | – | – | > 80% | – | – | – | – | – | –
5 | CON1CCC2(CC1)C(O)=C(c1c(C)cc(C)cc1C)C(=O)N2N1CCOCC1 [B1] | – | – | – | – | > 80% | – | – | ≥ 80% | > 80% | ≤ 10% | > 80%
6 | CON1CCC2(CC1)C(O)=C(c1cc(C)ccc1C)C(=O)N2N1CCOCC1 [B5] | – | – | – | – | – | – | – | ≥ 80% | > 80% | ≤ 10% | –
7 | CCOC(=O)OC1=C(c2c(C)cc(C)cc2C)C(=O)N(N(C)C)C12CCN(OC)CC2 [A2, Carbonic acid 1-dimethylamino-8-methoxy-2-oxo-3-(2,4,6-trimethyl-phenyl)-1,8-diaza-spiro[4.5]dec-3-en-4-yl ester ethyl ester] | ≥ 80% | ≤ 10% | > 80% | – | > 80% | > 80% | > 80% | – | > 80% | – | –
8 | CCOC(=O)OC1=C(c2c(C)cc(Cl)cc2C)C(=O)N(N2CCOCC2)C12CCN(OC)CC2 [B4] | – | – | – | – | > 80% | – | – | ≥ 80% | > 80% | ≤ 10% | > 80%
9 | CCOC(=O)OC1=C(c2c(C)cc(Cl)cc2C)C(=O)N(N(C)C)C12CCN(OC)CC2 [A4] | ≥ 80% | ≤ 10% | – | – | > 80% | – | – | – | > 80% | – | > 80%
10 | CON1CCC2(CC1)C(O)=C(c1c(C)cc(Cl)cc1C)C(=O)N2N1CCOCC1 [B3] | – | – | – | – | > 80% | – | – | ≥ 80% | > 80% | ≤ 10% | > 80%
11 | CCOC(=O)OC1=C(c2c(C)cc(C)cc2C)C(=O)N(N2CCOCC2)C12CCN(OC)CC2 [B2] | – | – | – | – | – | – | – | ≥ 80% | > 80% | ≤ 10% | > 80%
